Measured values taken from ChEMBL document CHEMBL1201862, “PubChem BioAssay data set” (2004).
Activity calls are given as the source filed them.

What was measured:
Escherichia coli = assay: microbe, parasite or virus in culture
Cytochrome P450 2D6 = Cytochrome P450 2D6 (Homo sapiens, UniProt P10635);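 also: CYP2D6 member of a cytochrome P450 panel assay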
Cytochrome P450 2C19 = Cytochrome P450 2C19 (Homo sapiens, UniProt P33261); assay: Cytochrome panel assay with activity outcomes. Panel member name: p450-cyp2c19 Compounds with AC50 equal or less than 10 uM are considered active; format: functional; settings: read-out: AC50
Cytochrome P450 1A2 = biological target: T1, Cytochrome P450 1A2 (Homo sapiens, UniProt P05177);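 also: PubChem cytochrome P450 panel assay, CYP1A2 panel member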
T1 sequence (P05177 whole entry): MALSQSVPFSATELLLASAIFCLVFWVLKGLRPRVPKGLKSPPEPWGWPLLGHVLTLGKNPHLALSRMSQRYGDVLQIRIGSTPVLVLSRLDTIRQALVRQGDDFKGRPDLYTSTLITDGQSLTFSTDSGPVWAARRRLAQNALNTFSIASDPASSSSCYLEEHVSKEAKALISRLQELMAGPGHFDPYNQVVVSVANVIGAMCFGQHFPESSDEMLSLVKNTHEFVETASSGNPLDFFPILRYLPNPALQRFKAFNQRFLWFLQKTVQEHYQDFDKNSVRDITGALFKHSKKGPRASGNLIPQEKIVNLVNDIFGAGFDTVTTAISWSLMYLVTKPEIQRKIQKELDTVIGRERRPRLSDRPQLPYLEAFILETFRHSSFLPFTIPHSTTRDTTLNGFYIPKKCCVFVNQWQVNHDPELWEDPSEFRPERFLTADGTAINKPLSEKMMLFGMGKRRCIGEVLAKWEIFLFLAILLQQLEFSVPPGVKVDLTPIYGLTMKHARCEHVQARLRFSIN

Cytochrome P450 3A4 = Cytochrome P450 3A4 (Homo sapiens, UniProt P08684);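 also: CYP3A4 tested as one member of a cytochrome P450 panel screen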
[1] = biological target: Delta-type opioid receptor (Homo sapiens, UniProt P41143); assay: Counterscreen for agonists of heterodimerization of the mu 1 (OPRM1) and delta 1 (OPRD1) opioid receptors: Luminescence-based cell-based high throughput dose response assay to identify agonists of OPRD1 homodimerization. [Related pubchem assays (depositor defined):AID504326, AID504355, AID504692, AID504904, AID504905]; format: functional
Mu-type opioid receptor = Mu-type opioid receptor (Homo sapiens, UniProt P35372); assay: Counterscreen for agonists of heterodimerization of the mu 1 (OPRM1) and delta 1 (OPRD1) opioid receptors: Luminescence-based cell-based high throughput dose response assay to identify agonists of OPRM1 homodimerization.; format: functional;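 also: U2OS cells expressing OPRM1 and beta-arrestin as split beta-galactosidase partners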
[2] = biological target: 5-hydroxytryptamine receptor 5A (Homo sapiens, UniProt P47898); assay: Counterscreen for agonists of OPRM1-OPRD1 heterodimerization: luminescence-based cell-based high throughput dose response assay to identify agonists of 5-hydroxytryptamine (serotonin) 5A receptor (HTR5A). [Related pubchem assays (depositor defined):AID504326, AID504355, AID504692, AID504904, AID504905]; format: functional
HEK293 [3] = assay: NOD1 signaling inhibitors, primary screen, cell-based, luminescence, uHTS (AID 1578); format: functional; settings: Homo sapiens
HEK293 [4] = assay: cells; format: functional, cell-based; settings: Homo sapiens
HEK293 [5] = assay: cells; format: functional, cell-based; settings: Homo sapiens; remark: listed apart in the source
HEK293 [6] = assay: NOD2 signaling inhibitors in MDP-stimulated cells, cell-based, uHTS, luminescence (AID 2001); format: functional; settings: Homo sapiens
HEK293 [7] = assay: cells; settings: Homo sapiens
HEK293 [8] = assay: cells; settings: Homo sapiens; remark: listed apart in the source
[9] = biological target: T2, RNA-binding protein pos-1 (Caenorhabditis elegans, UniProt G5EF15); assay: inhibitors of POS-1/mex-3 RNA binding, dose response, biochemical, fluorescence polarization (AID 1964);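 also: purified POS-1 fused to maltose binding protein made in E. coli; potency of compounds blocking POS-1 binding to fluorescent RNA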
T2 sequence (G5EF15 whole entry): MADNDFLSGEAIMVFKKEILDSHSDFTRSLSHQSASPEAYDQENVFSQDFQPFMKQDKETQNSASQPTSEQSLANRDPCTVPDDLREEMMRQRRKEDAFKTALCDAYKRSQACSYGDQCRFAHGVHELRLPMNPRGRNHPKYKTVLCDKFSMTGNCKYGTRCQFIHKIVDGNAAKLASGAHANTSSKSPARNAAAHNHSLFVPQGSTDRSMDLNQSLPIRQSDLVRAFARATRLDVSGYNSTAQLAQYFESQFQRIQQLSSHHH

[10] = biological target: T3, Zinc finger protein mex-5 (Caenorhabditis elegans, UniProt Q9XUB2); assay: MEX-5/TCR-2 RNA interaction inhibitors, dose response, biochemical, C. elegans, fluorescence polarization (AID 1960)
T3 sequence (Q9XUB2 whole entry): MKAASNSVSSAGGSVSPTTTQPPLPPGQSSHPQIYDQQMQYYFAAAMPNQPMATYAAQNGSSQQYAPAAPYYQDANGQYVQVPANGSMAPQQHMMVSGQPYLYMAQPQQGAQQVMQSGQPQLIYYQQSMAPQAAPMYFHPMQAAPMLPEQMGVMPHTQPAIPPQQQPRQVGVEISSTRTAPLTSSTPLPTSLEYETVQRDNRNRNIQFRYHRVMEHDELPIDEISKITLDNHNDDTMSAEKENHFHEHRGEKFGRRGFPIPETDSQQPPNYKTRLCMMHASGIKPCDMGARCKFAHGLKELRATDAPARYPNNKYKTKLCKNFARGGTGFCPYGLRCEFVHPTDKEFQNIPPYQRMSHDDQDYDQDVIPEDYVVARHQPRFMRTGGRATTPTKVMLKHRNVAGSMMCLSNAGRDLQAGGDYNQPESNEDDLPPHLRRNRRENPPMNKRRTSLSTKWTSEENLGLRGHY

[11] = biological target: T4, Endoribonuclease toxin MazF (Escherichia coli K-12, UniProt P0AE70); assay: MazF toxin RNase activators, dose response, biochemical, fluorescence, single-stranded RNA substrate, uHTS hits (AID 588481); format: functional
T4 sequence (P0AE70 whole entry): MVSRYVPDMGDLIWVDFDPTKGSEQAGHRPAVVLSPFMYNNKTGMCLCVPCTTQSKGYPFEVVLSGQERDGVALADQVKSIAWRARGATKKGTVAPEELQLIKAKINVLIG

[12] = biological target: T4, Endoribonuclease toxin MazF; assay: fluorescent RNA oligo signal without MazF, dose response, counter-screen for MazEF activator project, biochemical, fluorescence, single-stranded RNase substrate (AID 588502); format: functional
[13] = NIH-3T3 fibroblast cytotoxicity, dose response, cytotoxicity control, cell-based, fluorescence, Alamar Blue, secondary assay (AID 2327); format: functional;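 also: NIH-3T3 mouse fibroblasts cultured with fluconazole at 8 µg/mL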
[14] = C. albicans growth with fluconazole, confirmation, fluorescence, retest (AID 2467); format: functional, cell-based
Galanin receptor type 3 = biological target: T5, Galanin receptor type 3 (Homo sapiens, UniProt O60755); assay: Fluorescence-based cell-based primary high throughput dose response assay to identify antagonists of the Galanin Receptor 3 (GalR3).; format: functional
T5 sequence (O60755 whole entry): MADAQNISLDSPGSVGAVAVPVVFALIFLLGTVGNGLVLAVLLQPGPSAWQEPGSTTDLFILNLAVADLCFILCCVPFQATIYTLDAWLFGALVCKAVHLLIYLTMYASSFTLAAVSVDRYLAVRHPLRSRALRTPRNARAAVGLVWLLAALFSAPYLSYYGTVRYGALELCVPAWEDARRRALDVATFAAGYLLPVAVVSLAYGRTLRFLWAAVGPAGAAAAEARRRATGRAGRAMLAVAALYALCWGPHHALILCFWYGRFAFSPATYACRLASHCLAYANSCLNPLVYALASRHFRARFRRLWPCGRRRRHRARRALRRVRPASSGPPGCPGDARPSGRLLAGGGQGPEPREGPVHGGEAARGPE

cells = format: functional, cell-based; settings: HEK-CNG
[15] = inhibitors of firefly luciferase expression or activity, dose response, H4 neuroglioma cells, luminescence (AID 1990); format: functional, cell-based
[16] = Luminescence Cell-Based Dose Response HTS to Identify Inhibitors of 5'UTR Stem-Loop Driven Prion Protein mRNA Translation in H4 Neuroglioblastoma Cells. [Related pubchem assays: 1827 (Project Summary), 1813 (Primary HTS)]; format: functional
[17] = inhibitors of SNCA 5'UTR-driven reporter translation, confirmation, H4 neuroglioma cells, luminescence (AID 1988); format: functional, cell-based

Mu-type opioid receptor, sequence (P35372 whole entry): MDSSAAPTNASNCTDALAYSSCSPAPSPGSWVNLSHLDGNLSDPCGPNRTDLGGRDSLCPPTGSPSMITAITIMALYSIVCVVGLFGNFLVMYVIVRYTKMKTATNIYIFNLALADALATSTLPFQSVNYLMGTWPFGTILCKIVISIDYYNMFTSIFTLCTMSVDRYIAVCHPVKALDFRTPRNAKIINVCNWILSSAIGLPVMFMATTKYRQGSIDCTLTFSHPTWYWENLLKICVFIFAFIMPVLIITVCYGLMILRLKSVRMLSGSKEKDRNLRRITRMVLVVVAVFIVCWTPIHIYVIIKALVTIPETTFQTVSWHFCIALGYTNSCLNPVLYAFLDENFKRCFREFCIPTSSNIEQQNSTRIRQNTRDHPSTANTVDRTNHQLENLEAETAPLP
Cytochrome P450 2D6, sequence (P10635 whole entry): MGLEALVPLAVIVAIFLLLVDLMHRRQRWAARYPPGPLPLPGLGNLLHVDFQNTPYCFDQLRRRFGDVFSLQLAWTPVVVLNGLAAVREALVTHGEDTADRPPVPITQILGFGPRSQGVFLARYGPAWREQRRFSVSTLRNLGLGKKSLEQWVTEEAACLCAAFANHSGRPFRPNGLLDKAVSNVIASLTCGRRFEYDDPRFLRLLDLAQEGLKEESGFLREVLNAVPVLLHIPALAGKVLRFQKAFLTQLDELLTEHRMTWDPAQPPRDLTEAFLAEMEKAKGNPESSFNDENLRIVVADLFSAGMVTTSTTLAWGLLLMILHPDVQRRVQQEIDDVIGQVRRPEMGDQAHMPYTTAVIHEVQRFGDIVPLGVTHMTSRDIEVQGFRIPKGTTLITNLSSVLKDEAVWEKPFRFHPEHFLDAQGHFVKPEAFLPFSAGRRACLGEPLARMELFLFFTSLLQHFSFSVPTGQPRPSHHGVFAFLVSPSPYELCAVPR
5-hydroxytryptamine receptor 5A, sequence (P47898 whole entry): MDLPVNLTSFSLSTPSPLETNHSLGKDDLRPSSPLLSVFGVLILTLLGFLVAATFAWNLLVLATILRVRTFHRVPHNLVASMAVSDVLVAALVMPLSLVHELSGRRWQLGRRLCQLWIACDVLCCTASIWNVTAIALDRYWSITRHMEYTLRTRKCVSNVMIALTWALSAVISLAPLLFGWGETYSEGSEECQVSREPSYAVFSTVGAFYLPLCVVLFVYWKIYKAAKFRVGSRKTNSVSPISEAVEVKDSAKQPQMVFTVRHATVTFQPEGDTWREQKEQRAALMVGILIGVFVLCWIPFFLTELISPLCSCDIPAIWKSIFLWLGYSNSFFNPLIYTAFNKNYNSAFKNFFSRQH
Delta-type opioid receptor, sequence (P41143 whole entry): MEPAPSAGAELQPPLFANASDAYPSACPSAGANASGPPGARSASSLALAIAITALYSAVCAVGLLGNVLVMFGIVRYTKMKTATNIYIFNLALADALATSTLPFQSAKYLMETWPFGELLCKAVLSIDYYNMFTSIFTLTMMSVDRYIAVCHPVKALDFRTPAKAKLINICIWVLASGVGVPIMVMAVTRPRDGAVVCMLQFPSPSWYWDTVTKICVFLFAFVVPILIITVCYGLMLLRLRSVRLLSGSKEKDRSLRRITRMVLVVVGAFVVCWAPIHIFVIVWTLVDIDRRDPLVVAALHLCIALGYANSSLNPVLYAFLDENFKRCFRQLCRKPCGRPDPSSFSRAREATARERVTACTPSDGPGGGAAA
Cytochrome P450 3A4, sequence (P08684 whole entry): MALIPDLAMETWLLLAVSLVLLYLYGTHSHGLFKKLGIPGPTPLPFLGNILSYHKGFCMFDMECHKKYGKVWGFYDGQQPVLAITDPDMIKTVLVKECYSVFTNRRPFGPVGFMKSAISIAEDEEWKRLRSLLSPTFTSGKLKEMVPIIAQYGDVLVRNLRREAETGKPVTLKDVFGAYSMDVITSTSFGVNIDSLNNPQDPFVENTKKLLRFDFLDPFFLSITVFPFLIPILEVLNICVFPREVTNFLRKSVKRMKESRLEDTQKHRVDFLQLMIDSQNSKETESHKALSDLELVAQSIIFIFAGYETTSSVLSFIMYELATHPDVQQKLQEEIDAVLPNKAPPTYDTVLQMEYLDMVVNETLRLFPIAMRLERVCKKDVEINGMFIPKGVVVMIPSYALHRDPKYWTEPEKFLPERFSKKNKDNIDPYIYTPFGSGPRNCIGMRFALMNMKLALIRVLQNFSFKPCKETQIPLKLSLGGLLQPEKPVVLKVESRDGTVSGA
Cytochrome P450 2C19, sequence (P33261 whole entry): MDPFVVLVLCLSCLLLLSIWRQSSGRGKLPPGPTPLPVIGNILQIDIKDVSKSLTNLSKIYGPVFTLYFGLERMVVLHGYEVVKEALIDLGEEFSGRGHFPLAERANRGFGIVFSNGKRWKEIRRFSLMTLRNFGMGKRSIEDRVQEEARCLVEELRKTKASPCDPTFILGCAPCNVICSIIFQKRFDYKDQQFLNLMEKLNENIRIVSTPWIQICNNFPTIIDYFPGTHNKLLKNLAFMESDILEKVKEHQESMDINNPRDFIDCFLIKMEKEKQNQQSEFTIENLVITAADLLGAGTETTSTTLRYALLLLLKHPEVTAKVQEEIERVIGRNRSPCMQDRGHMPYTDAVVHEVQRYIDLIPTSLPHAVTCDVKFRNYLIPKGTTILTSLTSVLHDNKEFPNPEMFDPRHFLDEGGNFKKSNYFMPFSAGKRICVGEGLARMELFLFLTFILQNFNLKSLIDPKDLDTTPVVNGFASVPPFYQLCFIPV

## CC(C)OC(=O)c1nn2c(C(F)(F)F)cc(-c3ccco3)nc2c1Cl
Escherichia coli
  AC50: 43.9 µM (active)

## c1cncc(CNCc2cccnc2)c1
Cytochrome P450 2D6
  AC50: inconclusive

## CC(C)C(=O)N/N=C/c1ccc(OCc2ccccc2)cc1
Cytochrome P450 2C19
  AC50: 10 µM (inconclusive)
Cytochrome P450 1A2
  AC50: 15.8 µM (inconclusive)
Cytochrome P450 2D6
  AC50: inconclusive
Cytochrome P450 3A4
  AC50: inconclusive

## O=S(=O)(NC1CC1)c1ccc(S(=O)(=O)N2CCCC3(CCCCC3)C2)cc1
[1]
  EC50: > 92.5 µM (inactive)
Mu-type opioid receptor
  EC50: > 92.5 µM (inactive)
[2]
  EC50: > 92.5 µM (inactive)

## COc1ccc(-c2nc(CN3CCC(C(=O)NC4CCCc5ccccc54)CC3)c(C)o2)cc1OC (stereo unspecified)
[1]
  EC50: > 92.4 µM (inactive)
Mu-type opioid receptor
  EC50: 20.8 µM (inactive)
[2]
  EC50: > 92.4 µM (inactive)

## O=C(Nc1ccc(Br)c2ccccc12)c1ccc2ccccc2c1O
HEK293 [3]
  EC50: 0.79 µM (active)
HEK293 [4]
  IC50: 2.6 µM (active)
HEK293 [5]
  IC50: 13.7 µM (active)
HEK293 [6]
  IC50: 1.91 µM (active)

## CCc1ccc(NC(=O)CCn2nc(C)c(S(=O)(=O)N3CCCCC3)c2C)cc1
HEK293 [7]
  EC50: > 59.7 µM (inactive)
HEK293 [8]
  EC50: > 59.7 µM (inactive)

## COc1ccc(NC(=O)c2sc3nc(-c4cccnc4)ccc3c2N)cc1OC
[9]
  EC50: 115 µM (inconclusive)
[10]
  EC50: > 300 µM (inconclusive)
[11]
  EC50: > 99 µM (inactive)
[12]
  EC50: 54.5 µM (inactive)

## Cc1ccc(-c2nc3sc(C#N)c(N)n3c(=O)c2C#N)cc1
[13]
  EC50: > 160 µM (inactive)
[14]
  EC50: 1.72 µM (active)
[11]
  EC50: > 99 µM (inactive)
[12]
  EC50: > 99 µM (inactive)

## O=C1C=CC(O)C2(CO)OC12 (stereo unspecified)
HEK293 [7]
  EC50: > 59.6 µM (inactive)
HEK293 [8]
  EC50: > 59.6 µM (inactive)

## O=C(Nc1ccc(F)c(Cl)c1)c1cccnc1
Escherichia coli
  AC50: 61.5 µM (active)

## COc1ccc(NS(=O)(=O)c2ccc(NC(=O)c3ccc(CN4CCOCC4)cc3)cc2)cc1
HEK293 [3]
  EC50: 4.22 µM (active)
HEK293 [4]
  IC50: 5.35 µM (active)
HEK293 [5]
  IC50: > 20 µM (inactive)
HEK293 [6]
  IC50: 7.65 µM (active)
Galanin receptor type 3
  IC50: 2.94 µM (active)
cells
  EC50: > 29.9 µM (inactive)

## COc1ccc(-c2nn3c(C4CCCCC4)nnc3s2)cc1OC
[15]
  EC50: 15.5 µM (active)
[16]
  EC50: 18.1 µM (active)
[17]
  EC50: 13.5 µM (active)
HEK293 [7]
  EC50: > 59.7 µM (inactive)
HEK293 [8]
  EC50: > 59.7 µM (inactive)

## C=CCNC(=O)c1ccccc1NC(=O)Nc1ccccc1
Escherichia coli
  AC50: 44.4 µM (active)
